Assay results taken from article PMC8061427 (Science translational medicine, 2020).
Values joined by “and” are separate entries in the source; they are usually repeats but may differ in a detail not shown here. Identical values can stand only once. Values belong to the compound of their own block, whether it stands above or below them. Where no end group is shown, it is not given here. The star is where a group is joined. Myristoyl = CCCCCCCCCCCCCC(=O)*

Legend:
C57BL/6 mice = assay: FeCl3-induced mouse carotid artery thrombosis model; assay type: in vivo; details: for effect on occlusive thrombus formation: 7.5% FeCl3
mice [1] = assay: Mouse tail bleeding time test; details: cangrelor 30 μg/kg; for effect on mouse tail bleeding time: Fig. 5, M3mP6 HLPN 5 or 10 μmol/kg, high dose aspirin 36 mg/kg i.p., clopidogrel 4 mg/kg, ticagrelor 3 mg/kg
[2] = lipid micellar formulation; cited from earlier work
mice [3] = assay: Laser-induced cremaster arteriolar thrombosis model in mice; assay type: in vivo, mouse; details: pre-injected intravenously; M3mP6 HLPN 10 μmol/kg, cangrelor 30 μg/kg; 27 injury sites each
[4] = no reference given; cited from earlier work

Compound: COC(=O)[C@H](c1ccccc1Cl)N1CCc2sccc2C1 [clopidogrel]
effect on occlusive thrombus formation (C57BL/6 mice; Fig. 4C, M3mP6 HLPN 10 μmol/kg, clopidogrel 4 mg/kg oral 2 hours before, ticagrelor 3 mg/kg oral 2 hours before): delayed occlusive thrombus formation following FeCl3-induced injury but was less effective than M3mP6 HLPN

Compound: Myristoyl-FEEERA [mP6]
peptide concentration achieved in lipid micellar suspension [2]: 1 mM and < 1 mM

Continued, in another order:

effect on mouse tail bleeding time (mice [1]): increased tail bleeding time
Compound: CCCSc1nc(N[C@@H]2C[C@H]2c2ccc(F)c(F)c2)c2nnn([C@@H]3C[C@H](OCCO)[C@@H](O)[C@H]3O)c2n1 [ticagrelor]

effect on mouse tail bleeding time (mice [1]): increased tail bleeding time
Compound: CC(=O)Oc1ccccc1C(=O)O [aspirin]
effect on occlusive thrombus formation (C57BL/6 mice; Fig. 4B, M3mP6 HLPN 5 μmol/kg, aspirin 36 mg/kg i.p. 1 hour before): no obvious effect

effect on mouse tail bleeding time (mice [1]): increased tail bleeding time
Compound: CSCCNc1nc(SCCC(F)(F)F)nc2c1ncn2[C@@H]1O[C@H](COP(=O)(O)OP(=O)(O)C(Cl)(Cl)P(=O)(O)O)[C@@H](O)[C@H]1O [cangrelor]
overall effect on occlusive thrombosis (C57BL/6 mice; Fig. 4E, cangrelor 30 μg/kg retro-orbital, M3mP6 HLPN 10 μmol/kg): moderately better than M3mP6 HLPN
tail bleeding time (mice [1]; post-injury injection, M3mP6 HLPN 10 μmol/kg): prolonged tail bleeding time
effect on platelet thrombus formation (mice [3]): potently inhibiting platelet thrombus formation
plasma half-life [4]: 3 to 6 min
